# Reference: publication PMC5766581, “NF-κB inducing kinase is a therapeutic target for systemic lupus erythematosus” (Nature Communications, 2018)
# Values joined by “and” are separate entries in the source; they are usually repeats but may differ in a detail not shown here. Equal values may be shown once.
# Key:
# Test in all cases: SelectScreen kinase panel
# Type in all cases: biochemical
# PKC_theta = biological target: T1, PKC_theta (Homo sapiens, UniProt Q04759)
# T1 construct: purchased Invitrogen / ThermoFisher SelectScreen
# Procedure, shortened: (§1)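 Human kinases were profiled in Invitrogen's SelectScreen broad panel. Depending on the enzyme, inhibition was assessed by peptide phosphorylation (Z′-LYTE), by ADP formation (Adapta), or by displacement at the ATP site (LanthaScreen), and then reported as mean percent inhibition.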
# ITK = biological target: T2, ITK (Homo sapiens, UniProt Q08881)
# T2 construct: purchased Invitrogen / ThermoFisher SelectScreen
# Procedure, shortened: as §1
# PRKAA1 = biological target: T3, PRKAA1 (Homo sapiens, UniProt Q13131)
# T3 construct: purchased Invitrogen / ThermoFisher SelectScreen
# Procedure, shortened: as §1
# PIM1 = biological target: T4, PIM1 (Homo sapiens, UniProt P11309)
# T4 construct: purchased Invitrogen / ThermoFisher SelectScreen
# Procedure, shortened: as §1
# PI3K- A = biological target: T5, PI3K- A (Homo sapiens, UniProt P42336)
# T5 construct: purchased Invitrogen / ThermoFisher SelectScreen
# Procedure, shortened: as §1
# Aurora_B = biological target: T6, Aurora_B (Homo sapiens, UniProt Q96GD4)
# T6 construct: purchased Invitrogen / ThermoFisher SelectScreen
# Procedure, shortened: as §1
# DYRK1A = biological target: T7, DYRK1A (Homo sapiens, UniProt Q13627)
# T7 construct: purchased Invitrogen / ThermoFisher SelectScreen
# Procedure, shortened: as §1
# CaMKI_delta = biological target: T8, CaMKI_delta (Homo sapiens, UniProt Q8IU85)
# T8 construct: purchased Invitrogen / ThermoFisher SelectScreen
# Procedure, shortened: as §1
# LRRK2 = biological target: T9, LRRK2 (Homo sapiens, UniProt Q5S007); details: NIK SMI1 1 µM; ATP Km app
# T9 construct: purchased Invitrogen / ThermoFisher SelectScreen
# Procedure, shortened: as §1
# CDK7/cyclinH = biological target: T10, CDK7/cyclinH (Homo sapiens, UniProt P50613)
# T10 construct: purchased Invitrogen / ThermoFisher SelectScreen
# Procedure, shortened: as §1
# NEK6 = biological target: T11, NEK6 (Homo sapiens, UniProt Q9HC98)
# T11 construct: purchased Invitrogen / ThermoFisher SelectScreen
# Procedure, shortened: as §1
# JNK1_alpha1 = biological target: T12, JNK1_alpha1 (Homo sapiens, UniProt P45983)
# T12 construct: purchased Invitrogen / ThermoFisher SelectScreen
# Procedure, shortened: as §1
# ErbB4 = biological target: T13, ErbB4 (Homo sapiens, UniProt Q15303)
# T13 construct: purchased Invitrogen / ThermoFisher SelectScreen
# Procedure, shortened: as §1
# Abl = biological target: T14, Abl (Homo sapiens, UniProt P00519)
# T14 construct: purchased Invitrogen / ThermoFisher SelectScreen
# Procedure, shortened: as §1
# Mer = biological target: T15, Mer (Homo sapiens, UniProt Q12866)
# T15 construct: purchased Invitrogen / ThermoFisher SelectScreen
# Procedure, shortened: as §1
# JAK2 = biological target: T16, JAK2 (Homo sapiens, UniProt O60674)
# T16 construct: purchased Invitrogen / ThermoFisher SelectScreen
# Procedure, shortened: as §1
# MARK1 = biological target: T17, MARK1 (Homo sapiens, UniProt Q9P0L2)
# T17 construct: purchased Invitrogen / ThermoFisher SelectScreen
# Procedure, shortened: as §1
# PLK3 = biological target: T18, PLK3 (Homo sapiens, UniProt Q9H4B4)
# T18 construct: purchased Invitrogen / ThermoFisher SelectScreen
# Procedure, shortened: as §1
# EphA7 = biological target: T19, EphA7 (Homo sapiens, UniProt Q15375)
# T19 construct: purchased Invitrogen / ThermoFisher SelectScreen
# Procedure, shortened: as §1
# PAK1 = biological target: T20, PAK1 (Homo sapiens, UniProt Q13153)
# T20 construct: purchased Invitrogen / ThermoFisher SelectScreen
# Procedure, shortened: as §1
# ACVR1B = biological target: T21, ACVR1B (Homo sapiens, UniProt P36896)
# T21 construct: purchased Invitrogen / ThermoFisher SelectScreen
# Procedure, shortened: as §1
# MAPKAPK2 = biological target: T22, MAPKAPK2 (Homo sapiens, UniProt P49137)
# T22 construct: purchased Invitrogen / ThermoFisher SelectScreen
# Procedure, shortened: as §1
# BTK = biological target: T23, BTK (Homo sapiens, UniProt Q06187)
# T23 construct: purchased Invitrogen / ThermoFisher SelectScreen
# Procedure, shortened: as §1
# RSK2 = biological target: T24, RSK2 (Homo sapiens, UniProt P51812)
# T24 construct: purchased Invitrogen / ThermoFisher SelectScreen
# Procedure, shortened: as §1
# IRR = biological target: T25, IRR (Homo sapiens, UniProt P14616)
# T25 construct: purchased Invitrogen / ThermoFisher SelectScreen
# Procedure, shortened: as §1
# KHS1 = biological target: T26, KHS1 (Homo sapiens, UniProt Q9Y4K4); details: NIK SMI1 1 µM; ATP Km app
# T26 construct: purchased Invitrogen / ThermoFisher SelectScreen
# Procedure, shortened: as §1
# CK1_gamma1 = biological target: T27, CK1_gamma1 (Homo sapiens, UniProt Q9HCP0)
# T27 construct: purchased Invitrogen / ThermoFisher SelectScreen
# Procedure, shortened: as §1
# Met = biological target: T28, Met (Homo sapiens, UniProt P08581)
# T28 construct: purchased Invitrogen / ThermoFisher SelectScreen
# Procedure, shortened: as §1
# IKK_alpha = biological target: T29, IKK_alpha (Homo sapiens, UniProt O15111)
# T29 construct: purchased Invitrogen / ThermoFisher SelectScreen
# Procedure, shortened: as §1
# CK1_alpha1 = biological target: T30, CK1_alpha1 (Homo sapiens, UniProt P48729)
# T30 construct: purchased Invitrogen / ThermoFisher SelectScreen
# Procedure, shortened: as §1
# MST2 = biological target: T31, MST2 (Homo sapiens, UniProt Q13188)
# T31 construct: purchased Invitrogen / ThermoFisher SelectScreen
# Procedure, shortened: as §1
# DYRK3 = biological target: T32, DYRK3 (Homo sapiens, UniProt O43781)
# T32 construct: purchased Invitrogen / ThermoFisher SelectScreen
# Procedure, shortened: as §1
# T26 sequence (Q9Y4K4 whole entry): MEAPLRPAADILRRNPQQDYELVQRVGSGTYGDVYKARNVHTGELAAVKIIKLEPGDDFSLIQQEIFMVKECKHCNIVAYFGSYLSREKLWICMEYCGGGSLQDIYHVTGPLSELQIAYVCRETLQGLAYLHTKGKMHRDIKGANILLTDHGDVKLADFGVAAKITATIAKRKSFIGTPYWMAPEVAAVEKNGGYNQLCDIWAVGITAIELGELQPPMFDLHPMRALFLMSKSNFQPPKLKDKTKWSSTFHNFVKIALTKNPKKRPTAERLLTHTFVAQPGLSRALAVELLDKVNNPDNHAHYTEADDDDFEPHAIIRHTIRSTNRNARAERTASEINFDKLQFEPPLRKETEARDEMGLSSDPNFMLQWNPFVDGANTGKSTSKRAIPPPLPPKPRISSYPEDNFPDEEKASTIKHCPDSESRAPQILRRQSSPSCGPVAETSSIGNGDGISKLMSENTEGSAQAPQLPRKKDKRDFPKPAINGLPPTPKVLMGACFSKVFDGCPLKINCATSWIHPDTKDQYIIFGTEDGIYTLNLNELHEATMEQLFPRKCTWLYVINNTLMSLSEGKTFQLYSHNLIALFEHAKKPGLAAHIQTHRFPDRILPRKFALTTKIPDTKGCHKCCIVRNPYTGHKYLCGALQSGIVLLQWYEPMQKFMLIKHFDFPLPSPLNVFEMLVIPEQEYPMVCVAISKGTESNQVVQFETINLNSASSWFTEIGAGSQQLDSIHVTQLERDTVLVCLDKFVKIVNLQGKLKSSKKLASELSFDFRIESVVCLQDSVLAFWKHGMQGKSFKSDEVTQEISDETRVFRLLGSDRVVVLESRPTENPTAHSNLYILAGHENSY
# T9 sequence (Q5S007 whole entry): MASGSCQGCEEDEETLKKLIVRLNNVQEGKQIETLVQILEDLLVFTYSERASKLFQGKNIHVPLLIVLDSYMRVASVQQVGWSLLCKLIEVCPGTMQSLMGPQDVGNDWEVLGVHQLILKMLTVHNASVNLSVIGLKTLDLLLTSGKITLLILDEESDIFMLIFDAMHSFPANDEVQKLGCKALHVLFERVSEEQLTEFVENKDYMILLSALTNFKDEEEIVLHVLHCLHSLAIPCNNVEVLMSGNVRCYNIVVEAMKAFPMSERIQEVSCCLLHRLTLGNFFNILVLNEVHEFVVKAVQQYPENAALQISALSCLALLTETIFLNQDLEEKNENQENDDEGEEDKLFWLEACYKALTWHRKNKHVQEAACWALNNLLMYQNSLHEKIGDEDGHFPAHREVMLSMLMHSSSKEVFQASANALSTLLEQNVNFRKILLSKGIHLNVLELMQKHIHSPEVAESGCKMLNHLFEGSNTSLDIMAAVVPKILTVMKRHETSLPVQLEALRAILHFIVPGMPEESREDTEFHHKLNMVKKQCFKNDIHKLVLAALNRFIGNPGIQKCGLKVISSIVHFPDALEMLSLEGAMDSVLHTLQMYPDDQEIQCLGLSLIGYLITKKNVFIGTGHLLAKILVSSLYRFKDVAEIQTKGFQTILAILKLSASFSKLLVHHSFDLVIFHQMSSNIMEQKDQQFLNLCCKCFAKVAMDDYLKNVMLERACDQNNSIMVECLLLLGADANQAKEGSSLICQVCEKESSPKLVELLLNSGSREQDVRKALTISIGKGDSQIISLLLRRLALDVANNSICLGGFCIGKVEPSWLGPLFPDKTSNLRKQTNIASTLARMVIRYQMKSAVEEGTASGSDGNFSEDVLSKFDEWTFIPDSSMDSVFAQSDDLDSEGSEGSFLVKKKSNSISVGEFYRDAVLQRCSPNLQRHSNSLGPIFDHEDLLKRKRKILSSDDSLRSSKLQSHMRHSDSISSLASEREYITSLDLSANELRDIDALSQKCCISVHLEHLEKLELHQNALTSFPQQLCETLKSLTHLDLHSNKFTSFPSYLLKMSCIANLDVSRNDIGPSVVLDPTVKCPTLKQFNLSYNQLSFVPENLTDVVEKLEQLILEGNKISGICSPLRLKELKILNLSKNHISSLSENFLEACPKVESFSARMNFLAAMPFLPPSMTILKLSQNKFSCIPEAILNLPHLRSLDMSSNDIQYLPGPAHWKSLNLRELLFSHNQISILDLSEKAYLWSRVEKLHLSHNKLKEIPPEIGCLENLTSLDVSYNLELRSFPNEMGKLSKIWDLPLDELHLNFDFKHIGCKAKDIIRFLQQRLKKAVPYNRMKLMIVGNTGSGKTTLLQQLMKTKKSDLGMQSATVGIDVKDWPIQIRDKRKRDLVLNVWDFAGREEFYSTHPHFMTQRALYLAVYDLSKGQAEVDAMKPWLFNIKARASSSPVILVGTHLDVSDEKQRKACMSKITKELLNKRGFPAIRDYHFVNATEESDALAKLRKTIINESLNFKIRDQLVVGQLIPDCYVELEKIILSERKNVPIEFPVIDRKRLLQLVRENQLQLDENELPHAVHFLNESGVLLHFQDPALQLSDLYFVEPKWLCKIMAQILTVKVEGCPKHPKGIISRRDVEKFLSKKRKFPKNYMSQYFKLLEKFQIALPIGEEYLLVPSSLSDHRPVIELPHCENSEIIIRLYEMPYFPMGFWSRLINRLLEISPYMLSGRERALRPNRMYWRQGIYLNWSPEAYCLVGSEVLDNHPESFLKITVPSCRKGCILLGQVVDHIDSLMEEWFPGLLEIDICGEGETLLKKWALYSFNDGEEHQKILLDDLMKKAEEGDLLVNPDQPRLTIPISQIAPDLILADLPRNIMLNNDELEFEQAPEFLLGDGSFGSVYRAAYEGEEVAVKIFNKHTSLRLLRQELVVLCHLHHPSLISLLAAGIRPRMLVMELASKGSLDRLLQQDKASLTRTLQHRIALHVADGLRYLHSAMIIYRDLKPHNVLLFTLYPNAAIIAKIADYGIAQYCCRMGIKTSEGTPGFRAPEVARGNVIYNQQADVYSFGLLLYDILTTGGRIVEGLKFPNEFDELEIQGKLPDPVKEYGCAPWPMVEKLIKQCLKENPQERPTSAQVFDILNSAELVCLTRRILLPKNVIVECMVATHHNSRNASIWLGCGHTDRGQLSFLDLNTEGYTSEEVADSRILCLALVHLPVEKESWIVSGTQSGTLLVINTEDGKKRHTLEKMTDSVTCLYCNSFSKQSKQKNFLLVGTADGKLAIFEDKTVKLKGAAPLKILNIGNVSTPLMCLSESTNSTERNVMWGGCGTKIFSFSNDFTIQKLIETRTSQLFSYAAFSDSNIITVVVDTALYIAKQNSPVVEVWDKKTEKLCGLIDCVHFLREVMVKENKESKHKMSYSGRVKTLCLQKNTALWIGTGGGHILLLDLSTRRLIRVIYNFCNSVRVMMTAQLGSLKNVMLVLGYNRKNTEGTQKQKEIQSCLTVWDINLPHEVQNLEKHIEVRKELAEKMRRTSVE
# T20 sequence (Q13153 whole entry): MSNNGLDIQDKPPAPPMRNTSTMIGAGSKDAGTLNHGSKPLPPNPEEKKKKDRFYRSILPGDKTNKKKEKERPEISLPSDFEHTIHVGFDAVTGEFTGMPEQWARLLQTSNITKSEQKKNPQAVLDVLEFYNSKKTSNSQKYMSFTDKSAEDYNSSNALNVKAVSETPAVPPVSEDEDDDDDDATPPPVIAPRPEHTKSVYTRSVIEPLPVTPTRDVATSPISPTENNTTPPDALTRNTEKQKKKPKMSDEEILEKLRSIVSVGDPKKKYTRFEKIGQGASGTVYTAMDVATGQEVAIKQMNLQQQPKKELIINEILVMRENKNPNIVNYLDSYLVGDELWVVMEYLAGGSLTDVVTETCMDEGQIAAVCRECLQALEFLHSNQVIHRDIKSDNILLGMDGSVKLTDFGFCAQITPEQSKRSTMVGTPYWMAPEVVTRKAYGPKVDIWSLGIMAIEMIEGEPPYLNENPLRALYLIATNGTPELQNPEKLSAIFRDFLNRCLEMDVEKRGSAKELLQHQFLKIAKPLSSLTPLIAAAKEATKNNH
# T11 sequence (Q9HC98 whole entry): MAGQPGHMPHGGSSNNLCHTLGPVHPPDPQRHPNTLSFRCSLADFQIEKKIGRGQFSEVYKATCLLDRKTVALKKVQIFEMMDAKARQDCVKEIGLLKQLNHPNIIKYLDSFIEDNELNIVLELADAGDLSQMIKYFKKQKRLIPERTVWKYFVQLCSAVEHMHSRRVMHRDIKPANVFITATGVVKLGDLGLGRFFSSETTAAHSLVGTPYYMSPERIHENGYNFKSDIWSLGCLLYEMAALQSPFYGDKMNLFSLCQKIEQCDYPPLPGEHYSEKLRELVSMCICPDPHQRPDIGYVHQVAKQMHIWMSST
# T23 sequence (Q06187 whole entry): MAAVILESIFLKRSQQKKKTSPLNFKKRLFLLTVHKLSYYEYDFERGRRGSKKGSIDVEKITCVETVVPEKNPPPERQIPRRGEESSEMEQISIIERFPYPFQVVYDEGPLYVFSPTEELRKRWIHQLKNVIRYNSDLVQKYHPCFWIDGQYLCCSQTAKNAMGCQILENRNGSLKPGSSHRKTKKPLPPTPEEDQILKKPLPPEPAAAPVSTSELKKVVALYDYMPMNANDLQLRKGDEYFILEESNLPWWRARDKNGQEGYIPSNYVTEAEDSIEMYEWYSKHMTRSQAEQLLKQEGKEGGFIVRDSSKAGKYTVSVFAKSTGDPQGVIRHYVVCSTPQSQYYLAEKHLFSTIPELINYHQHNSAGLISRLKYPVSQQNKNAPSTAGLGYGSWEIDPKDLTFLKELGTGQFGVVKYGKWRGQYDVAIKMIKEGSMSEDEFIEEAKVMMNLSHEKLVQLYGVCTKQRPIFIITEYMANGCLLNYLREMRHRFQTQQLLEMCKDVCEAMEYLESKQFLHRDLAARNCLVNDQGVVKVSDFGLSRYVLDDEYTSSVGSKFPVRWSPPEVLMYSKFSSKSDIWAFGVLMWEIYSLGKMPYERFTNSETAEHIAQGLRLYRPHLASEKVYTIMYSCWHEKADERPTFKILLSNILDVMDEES
structure (smiles),measurement,setting,value
COc1cc(C(N)=O)nc(-c2cccc(C#C[C@]3(O)CCN(C)C3=O)c2)c1 [NIK SMI1],inhibition at 1 µM,PKC_theta,-6%
same,inhibition at 1 µM,ITK,-3%
same,inhibition at 1 µM,PRKAA1,20.5%
same,inhibition at 1 µM,PIM1,-0.5%
same,inhibition at 1 µM,PI3K- A,-7.5%
same,inhibition at 1 µM,Aurora_B,24.5%
same,inhibition at 1 µM,DYRK1A,4.5%
same,inhibition at 1 µM,CaMKI_delta,15%
same,% Inhibition,LRRK2,82.1%
same,inhibition at 1 µM,LRRK2,> 75%
same,inhibition at 1 µM,CDK7/cyclinH,-5.5%
same,inhibition at 1 µM,NEK6,17%
same,inhibition at 1 µM,JNK1_alpha1,5.6%
same,inhibition at 1 µM,ErbB4,7%
same,inhibition at 1 µM,Abl,9.5%
same,inhibition at 1 µM,Mer,3.5%
same,inhibition at 1 µM,JAK2,8.5%
same,inhibition at 1 µM,MARK1,16%
same,inhibition at 1 µM,PLK3,9%
same,inhibition at 1 µM,EphA7,5.1%
same,inhibition at 1 µM,PAK1,9%
same,inhibition at 1 µM,ACVR1B,2%
same,inhibition at 1 µM,MAPKAPK2,-5%
same,inhibition at 1 µM,BTK,-3%
same,inhibition at 1 µM,RSK2,7%
same,inhibition at 1 µM,IRR,5%
same,% Inhibition,KHS1,> 75% and 96%
same,inhibition at 1 µM,CK1_gamma1,2.5%
same,inhibition at 1 µM,Met,0%
same,inhibition at 1 µM,IKK_alpha,3.1%
same,inhibition at 1 µM,CK1_alpha1,2%
same,inhibition at 1 µM,MST2,28%
same,inhibition at 1 µM,DYRK3,1.5%
